Experimental data reported in the NIST ThermoML archive (doi:10.1016/j.jct.2009.05.006).

Experiments:
[1] = xn = mol fraction of the nth substance listed; details: 298.15 K, 101 kPa, Liquid, Vibrating tube method
[2] = excess molar enthalpy (molar enthalpy of mixing); xn = mol fraction of the nth substance listed; details: 298.15 K, 101 kPa, Liquid, Calvet calorimetry

BrCCCCBr [1,4-dibromobutane] + CCCCOC(C)=O
Details | excess molar enthalpy [kcal/mol] | mass density [kg/m3]
[1], x1 = 0.06 | – | 1754.15
[1], x1 = 0.1131 | – | 1699.34
[1], x1 = 0.1633 | – | 1648.18
[1], x1 = 0.2229 | – | 1588.24
[1], x1 = 0.2748 | – | 1536.73
[1], x1 = 0.3886 | – | 1426
[1], x1 = 0.4426 | – | 1374.38
[1], x1 = 0.5 | – | 1320.28
[1], x1 = 0.6216 | – | 1207.87
[1], x1 = 0.6806 | – | 1154.38
[1], x1 = 0.8076 | – | 1041.44
[1], x1 = 0.8633 | – | 992.97
[1], x1 = 0.9298 | – | 935.67
[2], x2 = 0.0576 | 0.00335 | –
[2], x2 = 0.135 | 0.00574 | –
[2], x2 = 0.2211 | 0.00621 | –
[2], x2 = 0.3056 | 0.00359 | –
[2], x2 = 0.3729 | -0.000956 | –
[2], x2 = 0.4291 | -0.00621 | –
[2], x2 = 0.4798 | -0.0124 | –
[2], x2 = 0.4866 | -0.0158 | –
[2], x2 = 0.5277 | -0.0186 | –
[2], x2 = 0.5406 | -0.021 | –
[2], x2 = 0.603 | -0.0234 | –
[2], x2 = 0.6715 | -0.0237 | –
[2], x2 = 0.7464 | -0.0222 | –
[2], x2 = 0.8416 | -0.0155 | –
[2], x2 = 0.9307 | -0.00717 | –

CCCCOC(=O)CCC [butyl butanoate] + BrCCCCCCBr
Details | excess molar enthalpy [kcal/mol] | mass density [kg/m3]
[1], x1 = 0.0615 | – | 1551.3
[1], x1 = 0.114 | – | 1509.95
[1], x1 = 0.1733 | – | 1463.7
[1], x1 = 0.2207 | – | 1427.05
[1], x1 = 0.2782 | – | 1383.1
[1], x1 = 0.3299 | – | 1343.86
[1], x1 = 0.3955 | – | 1294.64
[1], x1 = 0.4505 | – | 1253.75
[1], x1 = 0.5089 | – | 1210.69
[1], x1 = 0.5674 | – | 1168
[1], x1 = 0.6293 | – | 1123.3
[1], x1 = 0.68 | – | 1087.08
[1], x1 = 0.7477 | – | 1039.01
[1], x1 = 0.8082 | – | 996.64
[1], x1 = 0.8735 | – | 951.23
[1], x1 = 0.9358 | – | 908.5
[2], x1 = 0.0751 | 0.00502 | –
[2], x1 = 0.1669 | 0.00693 | –
[2], x1 = 0.2609 | 0.00669 | –
[2], x1 = 0.3471 | 0.00454 | –
[2], x1 = 0.418 | 0.000478 | –
[2], x1 = 0.4834 | -0.00406 | –
[2], x1 = 0.5223 | -0.00789 | –
[2], x1 = 0.5361 | -0.0086 | –
[2], x1 = 0.5892 | -0.0105 | –
[2], x1 = 0.6544 | -0.0115 | –
[2], x1 = 0.7475 | -0.0115 | –
[2], x1 = 0.8287 | -0.00956 | –
[2], x1 = 0.9253 | -0.00502 | –

BrCCBr [1,2-dibromoethane] + CCCCOC=O
Details | excess molar enthalpy, [2] [kcal/mol] | mass density, [1] [kg/m3]
x2 = 0.0489 | – | 2085.1
x2 = 0.0509 | 0.0098 | –
x2 = 0.0955 | – | 2008.94
x2 = 0.1197 | 0.0186 | –
x2 = 0.1401 | – | 1938.46
x2 = 0.1884 | – | 1864.18
x2 = 0.1992 | 0.027 | –
x2 = 0.2379 | – | 1790.7
x2 = 0.28 | 0.032 | –
x2 = 0.3095 | – | 1688.13
x2 = 0.3398 | – | 1646.07
x2 = 0.3511 | 0.0332 | –
x2 = 0.3993 | 0.0327 | 1565.68
x2 = 0.449 | 0.0315 | –
x2 = 0.4831 | 0.0299 | –
x2 = 0.5112 | – | 1422.24
x2 = 0.5504 | 0.027 | –
x2 = 0.5786 | – | 1340.18
x2 = 0.6334 | 0.022 | –
x2 = 0.641 | – | 1266.85
x2 = 0.7029 | – | 1196.55
x2 = 0.7275 | 0.016 | –
x2 = 0.7738 | – | 1118.89
x2 = 0.8087 | 0.0105 | –
x2 = 0.8358 | – | 1053.24
x2 = 0.9111 | 0.00406 | –
x2 = 0.9138 | – | 973.46

BrCCCBr [1,3-dibromopropane] + CCCCOC(C)=O
[2]
Details | excess molar enthalpy [kcal/mol]
x2 = 0.0548 | 0.00191
x2 = 0.1295 | 0.00287
x2 = 0.2133 | 0.00191
x2 = 0.2909 | -0.00167
x2 = 0.3612 | -0.0086
x2 = 0.424 | -0.017
x2 = 0.4792 | -0.0251
x2 = 0.5321 | -0.0289
x2 = 0.6141 | -0.0296
x2 = 0.7077 | -0.0277
x2 = 0.808 | -0.0217
x2 = 0.9143 | -0.0131
